Values quoted from earlier work as cited in patent US8231899B2, “Quick release pharmaceutical compositions of drug substances” (Nycomed Danmark ApS, priority 1998, dated 2012).

Experiments:
[1] = room temperature

**Q.** With `CN1C(C(=O)Nc2ccccn2)=C(O)c2sc(Cl)cc2S1(=O)=O` [lornoxicam] as the compound, how does the “solubility at a pH corresponding to 0.1 N HCl” value [1] read?
**A.** The value was “less than 1 mg 100 ml”.

**Q.** What about the pKa value of the same compound?
**A.** Its pKa value is “about 4.7”.

**Q.** Which “solubility in water and 0.1 N HCl” value [1] does the source give for `CC(=O)Oc1ccccc1C(=O)O` [acetylsalicylic acid] here?
**A.** Its value is “practically insoluble”.

**Q.** Which “solubility in water and 0.1 N HCl” value [1] does the source give for `COc1ccc2c(c1)c(CC(=O)O)c(C)n2C(=O)c1ccc(Cl)cc1` [indometacin] here?
**A.** The value was “practically insoluble”.
